Laboratory results: ChEMBL document CHEMBL5365547, “Unleashing the Potential of 1,3-Diketone Analogues as Selective LH2 Inhibitors” (ACS Med Chem Lett, 2023)
Calls of active or inactive are those of the source. The rule behind the calls is not given here.

What was measured:
[1] = target: T1, Procollagen-lysine,2-oxoglutarate 5-dioxygenase 2 (Homo sapiens, UniProt O00469); assay: Inhibition of human recombinant LH2 expressed in CHO cells incubated for 30 mins by luciferase-based Succinate-GloTM JmjC Demethylase/Hydroxylase Assay; assay type: cell-based
T1 sequence (O00469 whole entry): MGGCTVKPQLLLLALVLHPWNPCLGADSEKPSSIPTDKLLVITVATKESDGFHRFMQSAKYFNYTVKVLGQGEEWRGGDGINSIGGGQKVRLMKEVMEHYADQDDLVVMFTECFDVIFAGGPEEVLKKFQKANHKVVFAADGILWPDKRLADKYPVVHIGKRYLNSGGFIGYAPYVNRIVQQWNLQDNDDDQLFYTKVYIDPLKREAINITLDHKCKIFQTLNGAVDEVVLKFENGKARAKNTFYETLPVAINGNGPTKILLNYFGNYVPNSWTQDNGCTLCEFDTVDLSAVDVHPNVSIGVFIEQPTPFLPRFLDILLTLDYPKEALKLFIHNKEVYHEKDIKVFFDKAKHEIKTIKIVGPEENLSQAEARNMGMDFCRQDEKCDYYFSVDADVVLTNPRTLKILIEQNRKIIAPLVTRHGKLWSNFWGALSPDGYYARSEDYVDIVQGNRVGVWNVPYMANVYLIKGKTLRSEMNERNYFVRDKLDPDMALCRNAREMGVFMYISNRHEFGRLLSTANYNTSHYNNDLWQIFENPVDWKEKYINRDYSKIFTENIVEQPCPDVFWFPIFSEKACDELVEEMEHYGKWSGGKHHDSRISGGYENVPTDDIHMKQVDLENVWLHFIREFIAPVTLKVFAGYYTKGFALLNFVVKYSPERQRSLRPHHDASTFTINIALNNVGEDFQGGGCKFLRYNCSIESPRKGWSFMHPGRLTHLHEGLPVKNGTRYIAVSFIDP

[2] = target: T2, Lysine-specific demethylase 4A (Homo sapiens) (UniProt O75164); assay: Inhibition of JMJD2A (unknown origin) at 11 uM by Succinate-Glo kit assay
T2 sequence (whole entry): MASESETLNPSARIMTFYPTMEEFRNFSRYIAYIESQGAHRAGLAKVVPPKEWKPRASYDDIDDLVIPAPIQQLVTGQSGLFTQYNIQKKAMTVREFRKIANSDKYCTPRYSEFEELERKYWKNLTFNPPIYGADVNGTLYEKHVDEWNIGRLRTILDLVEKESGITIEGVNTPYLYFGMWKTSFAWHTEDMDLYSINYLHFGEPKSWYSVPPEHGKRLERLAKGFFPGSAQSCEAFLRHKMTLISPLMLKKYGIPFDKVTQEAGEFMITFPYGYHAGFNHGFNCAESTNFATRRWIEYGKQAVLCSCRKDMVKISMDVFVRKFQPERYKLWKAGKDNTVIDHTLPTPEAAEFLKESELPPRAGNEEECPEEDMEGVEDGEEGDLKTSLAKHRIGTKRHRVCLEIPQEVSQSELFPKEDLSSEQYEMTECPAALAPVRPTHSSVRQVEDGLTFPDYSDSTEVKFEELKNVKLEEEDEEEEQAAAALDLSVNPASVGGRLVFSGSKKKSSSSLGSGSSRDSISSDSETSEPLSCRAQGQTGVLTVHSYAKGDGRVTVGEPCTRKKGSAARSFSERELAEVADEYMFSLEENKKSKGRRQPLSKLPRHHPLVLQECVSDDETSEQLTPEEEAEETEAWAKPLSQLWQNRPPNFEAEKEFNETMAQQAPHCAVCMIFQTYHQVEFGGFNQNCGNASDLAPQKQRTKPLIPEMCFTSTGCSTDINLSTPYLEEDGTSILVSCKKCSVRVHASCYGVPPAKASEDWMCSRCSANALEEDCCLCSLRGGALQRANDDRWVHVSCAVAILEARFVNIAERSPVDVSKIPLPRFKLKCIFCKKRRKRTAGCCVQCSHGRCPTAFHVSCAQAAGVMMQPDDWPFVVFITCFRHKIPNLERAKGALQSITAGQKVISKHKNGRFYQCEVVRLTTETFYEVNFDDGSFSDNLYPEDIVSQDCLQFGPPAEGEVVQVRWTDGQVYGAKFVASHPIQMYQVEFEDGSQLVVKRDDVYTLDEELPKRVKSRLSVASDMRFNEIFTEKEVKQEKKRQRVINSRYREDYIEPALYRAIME

[3] = target: T3, Procollagen-lysine,2-oxoglutarate 5-dioxygenase 1 (Homo sapiens, UniProt Q02809); assay: Inhibition of human recombinant LH1 expressed in CHO cells incubated for 30 mins by luciferase-based Succinate-GloTM JmjC Demethylase/Hydroxylase Assay; assay type: cell-based
T3 sequence (Q02809 whole entry): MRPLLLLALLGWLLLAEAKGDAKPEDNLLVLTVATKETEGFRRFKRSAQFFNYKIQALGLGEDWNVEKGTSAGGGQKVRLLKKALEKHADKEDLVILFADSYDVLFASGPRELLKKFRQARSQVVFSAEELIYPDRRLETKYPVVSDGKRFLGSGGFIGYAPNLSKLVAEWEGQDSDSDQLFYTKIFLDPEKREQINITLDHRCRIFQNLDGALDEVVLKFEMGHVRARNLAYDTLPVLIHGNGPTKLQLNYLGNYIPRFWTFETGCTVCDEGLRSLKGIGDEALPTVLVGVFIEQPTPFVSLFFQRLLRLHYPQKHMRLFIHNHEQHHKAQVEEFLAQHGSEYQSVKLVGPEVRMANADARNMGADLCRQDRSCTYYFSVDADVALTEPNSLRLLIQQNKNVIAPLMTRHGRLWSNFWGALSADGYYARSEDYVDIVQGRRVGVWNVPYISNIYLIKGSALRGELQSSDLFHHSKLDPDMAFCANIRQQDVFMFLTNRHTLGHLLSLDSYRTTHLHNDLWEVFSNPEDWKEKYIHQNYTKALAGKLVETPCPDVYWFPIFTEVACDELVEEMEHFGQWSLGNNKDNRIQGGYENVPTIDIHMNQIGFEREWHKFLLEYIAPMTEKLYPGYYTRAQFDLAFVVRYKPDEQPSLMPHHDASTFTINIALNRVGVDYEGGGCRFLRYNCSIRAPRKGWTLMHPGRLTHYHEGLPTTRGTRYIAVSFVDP

Homo sapiens [4] = species: Homo sapiens; assay: Selectivity ratio of IC50 for inhibition of human recombinant LH1 to IC50 for inhibition of human recombinant LH2; settings: time 30.0 min
Homo sapiens [5] = species: Homo sapiens; assay: Selectivity ratio of IC50 for inhibition of human recombinant LH3 to IC50 for inhibition of human recombinant LH2
[6] = target: T4, Multifunctional procollagen lysine hydroxylase and glycosyltransferase LH3 (Homo sapiens, UniProt O60568); assay: Inhibition of human recombinant LH3 expressed in CHO cells incubated for 30 mins by luciferase-based Succinate-GloTM JmjC Demethylase/Hydroxylase Assay; assay type: cell-based
T4 sequence (O60568 whole entry): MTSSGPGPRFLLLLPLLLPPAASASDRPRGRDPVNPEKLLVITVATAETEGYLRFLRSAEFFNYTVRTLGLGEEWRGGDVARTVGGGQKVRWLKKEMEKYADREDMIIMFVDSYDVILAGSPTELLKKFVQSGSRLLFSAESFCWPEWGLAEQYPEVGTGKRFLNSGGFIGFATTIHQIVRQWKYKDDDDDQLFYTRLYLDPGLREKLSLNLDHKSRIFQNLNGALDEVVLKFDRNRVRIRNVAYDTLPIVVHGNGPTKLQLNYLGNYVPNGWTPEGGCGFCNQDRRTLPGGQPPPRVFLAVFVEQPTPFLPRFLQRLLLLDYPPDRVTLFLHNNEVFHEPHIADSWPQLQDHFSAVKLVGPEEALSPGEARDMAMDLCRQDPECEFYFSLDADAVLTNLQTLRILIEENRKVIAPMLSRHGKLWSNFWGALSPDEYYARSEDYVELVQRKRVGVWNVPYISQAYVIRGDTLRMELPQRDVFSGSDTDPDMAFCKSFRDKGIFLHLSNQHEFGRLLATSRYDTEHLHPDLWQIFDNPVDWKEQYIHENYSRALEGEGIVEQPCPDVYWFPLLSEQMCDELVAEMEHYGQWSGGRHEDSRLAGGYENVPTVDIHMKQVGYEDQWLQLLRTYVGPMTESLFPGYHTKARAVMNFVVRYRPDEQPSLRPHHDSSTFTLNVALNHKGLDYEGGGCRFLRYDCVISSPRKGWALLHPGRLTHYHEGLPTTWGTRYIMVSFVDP

344SQ = assay: Antiproliferative activity against mouse wild type 344SQ cells assessed as reduction in cell viability observed after 48 hrs by CCK-8 assay; assay type: functional, cell-based

| Structure (SMILES) | IC50 ([1]; read-out: IC50) [µM] | other results |
| --- | --- | --- |
| O=C(c1cccnc1)C1CCc2cc(F)ccc2C1=O (stereo not drawn) | > 10 | – |
| O=C(CC(=O)c1cccnc1)c1ccc([N+](=O)[O-])cc1 | > 10 | – |
| Cc1ccc(C(=O)CC(=O)c2cccc(N3CCOCC3)c2)cc1 | – | IC50 ([1]; cho): Not Active |
| O=C(CC(=O)c1ccncc1)c1ccccc1 | 1 | inhibition [2]: Active; IC50 [3]: 6.4 µM; Selectivity ratio (Homo sapiens [4]): 6; Selectivity ratio (Homo sapiens [5]): 5; IC50 [6]: 5.2 µM |
| O=C(CC(=O)c1cccnc1)c1ccccc1 | 5 | – |
| O=C(CC(=O)C(F)(F)F)c1ccc([N+](=O)[O-])cc1 | > 10 | – |
| O=C(c1cccnc1)C1CCc2cc(Cl)ccc2C1=O (stereo not drawn) | – | IC50 ([1]; cho): Not Active |
| O=C(CC(=O)c1cccnc1)c1ccc(C(F)(F)F)cc1 | – | IC50 ([1]; cho): Not Active |
| CN1CCN(c2cccc(C(=O)CC(=O)c3ccncc3)c2)CC1 | – | Activity (344SQ): inactive |

The next lines start with results.

| IC50 ([1]; read-out: IC50) [µM] | Structure (SMILES) | other results |
| --- | --- | --- |
| > 10 | c1cc(-c2cc(-c3ccncc3)n[nH]2)cc(N2CCOCC2)c1 | – |
| > 10 | CN1CCN(c2cccc(C(=O)CC(=O)c3nnn[nH]3)c2)CC1 | – |
| > 10 | CN1CCN(c2cccc(-c3cc(-c4ccncc4)n[nH]3)c2)CC1 | – |
| > 10 | O=C(CC(=O)c1nnn[nH]1)c1cccc(N2CCOCC2)c1 | – |
